Measurements published in PubChem BioAssay AID328 (DTP/NCI, 2004).
Values joined by “and” are separate entries in the source; they are usually repeats but may differ in a detail not shown here. Equal entries are not always repeated. Toxic doses and inconclusive results are not listed.

System: BDF1 mice, P388 leukemia ip, median survival T/C
Test: NCI In Vivo Anticancer Drug Screen. Data for tumor model P388 Leukemia (intraperitoneal) in B6D2F1 (BDF1) mice
Details: endpoint: median survival time, higher = longer survival
How it was run: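 Steps: implant the tumour, treat one group with compound and another with vehicle, record survival, then divide treated by control.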

[1] = dose: 25.0 mg/kg/injection, schedule: Q01DX009 (ip), vehicle: saline with Tween-80
[2] = dose: 50.0 mg/kg/injection, schedule: Q01DX009 (ip), vehicle: saline with Tween-80
[3] = dose: 100.0 mg/kg/injection, schedule: Q01DX009 (ip), vehicle: saline with Tween-80
[4] = dose: 200.0 mg/kg/injection, schedule: Q01DX009 (ip), vehicle: saline with Tween-80
[5] = dose: 100.0 mg/kg/injection, schedule: Q04DX003 (ip), vehicle: saline with Tween-80
[6] = dose: 200.0 mg/kg/injection, schedule: Q04DX003 (ip), vehicle: saline with Tween-80
[7] = dose: 400.0 mg/kg/injection, schedule: Q04DX003 (ip), vehicle: saline with Tween-80
[8] = dose: 100.0 mg/kg/injection, schedule: Q04DX003 (ip), vehicle: Klucel (hydroxypropylcellulose) (HPC)
[9] = dose: 100.0 mg/kg/injection, schedule: Q01DX001 (ip), vehicle: saline with Tween-80
[10] = dose: 200.0 mg/kg/injection, schedule: Q01DX001 (ip), vehicle: saline with Tween-80

`CCOC(=O)c1c[nH]c2cc(C(F)(F)F)ccc2c1=O` was tested, and the T/C (dose: 6.25 mg/kg/injection, schedule: Q01DX009 (ip), vehicle: gum acacia) was 116 % of control, the T/C (dose: 12.5 mg/kg/injection, schedule: Q01DX009 (ip), vehicle: gum acacia) was 100 % of control and the T/C (dose: 25.0 mg/kg/injection, schedule: Q01DX009 (ip), vehicle: gum acacia) was 98 % of control. For the same molecule, the T/C (dose: 25.0 mg/kg/injection, schedule: Q04DX003 (ip), vehicle: gum acacia) was 91 % of control and the T/C (dose: 100.0 mg/kg/injection, schedule: Q04DX003 (ip), vehicle: gum acacia) was 87 % of control.
`COc1ccc2nonc2c1` was tested, and the T/C [1] was 102 % of control, the T/C [2] was 93 % of control and the T/C [3] was 90 % of control. For the same molecule, the T/C [4] was 106 % of control.
`C=C(CN(CC(=C)C(=O)c1ccccc1)C(C)(C)C)C(=O)c1ccccc1` was tested, and the T/C (dose: 6.25 mg/kg/injection, schedule: Q01DX009 (ip), vehicle: saline with Tween-80) was 106 % of control, the T/C (dose: 12.5 mg/kg/injection, schedule: Q01DX009 (ip), vehicle: saline with Tween-80) was 111 % of control and the T/C [1] was 103 % of control.
`O=C1c2ccccc2C(=O)c2c(O)c(N3CCCCC3)cc(O)c21` was tested, and the T/C (dose: 50.0 mg/kg/injection, schedule: Q01DX009 (ip), vehicle: saline) was 93 % of control, the T/C (dose: 100.0 mg/kg/injection, schedule: Q01DX009 (ip), vehicle: saline) was 97 % of control and the T/C [5] was 98 % of control. The T/C (dose: 200.0 mg/kg/injection, schedule: Q01DX009 (ip), vehicle: saline) was 95 % of control, the T/C [6] was 109 % of control and the T/C (dose: 400.0 mg/kg/injection, schedule: Q01DX009 (ip), vehicle: saline) was 93 % of control. For the same molecule, the T/C [7] was 106 % of control.
For `CC1(C(=O)N2CC2)OC1c1ccccc1` (stereo unspecified), the T/C (dose: 25.0 mg/kg/injection, schedule: Q04DX002 (ip), vehicle: saline with Tween-80) was 91 % of control, the T/C (dose: 50.0 mg/kg/injection, schedule: Q04DX002 (ip), vehicle: saline with Tween-80) was 98 % of control and the T/C (dose: 100.0 mg/kg/injection, schedule: Q04DX002 (ip), vehicle: saline with Tween-80) was 96 % of control and 100 % of control.
`[O-]c1c[n+](-c2ccccc2)no1` was tested, and the T/C [2] was 119 % of control and the T/C [4] was 94 % of control.
`CCC(=O)OCC1OC(n2cnc3c(=S)nc(N)[nH]c32)C(OC(=O)CC)C1OC(=O)CC` (stereo unspecified) was tested, and the T/C (dose: 12.5 mg/kg/injection, schedule: Q04DX003 (ip), vehicle: Klucel (hydroxypropylcellulose) (HPC)) was 103 % of control, the T/C (dose: 16.0 mg/kg/injection, schedule: Q04DX003 (ip), vehicle: Klucel (hydroxypropylcellulose) (HPC)) was 118 % of control and the T/C (dose: 25.0 mg/kg/injection, schedule: Q01DX009 (ip), vehicle: Klucel (hydroxypropylcellulose) (HPC)) was 115 % of control. The T/C (dose: 25.0 mg/kg/injection, schedule: Q04DX003 (ip), vehicle: Klucel (hydroxypropylcellulose) (HPC)) was 173 % of control, the T/C (dose: 50.0 mg/kg/injection, schedule: Q01DX009 (ip), vehicle: Klucel (hydroxypropylcellulose) (HPC)) was 100 % of control and the T/C [8] was 122 % of control.
With `Oc1ccccc1C=NCCN1CC1.Oc1ccccc1C=NCCN1CC1.[Cu]` the T/C (dose: 6.25 mg/kg/injection, schedule: Q01DX001 (ip), vehicle: saline sonified) was 104 % of control, the T/C (dose: 8.25 mg/kg/injection, schedule: Q01DX001 (ip), vehicle: saline) was 104 % of control and the T/C (dose: 12.5 mg/kg/injection, schedule: Q01DX001 (ip), vehicle: saline) was 112 % of control. The T/C (dose: 18.75 mg/kg/injection, schedule: Q01DX001 (ip), vehicle: saline) was 124 % of control and the T/C (dose: 25.0 mg/kg/injection, schedule: Q01DX001 (ip), vehicle: saline sonified) was 118 % of control.
For `COc1ccc(C(=O)CC(C(=O)O)c2ccc(OC)c(OC)c2)cc1OC` (stereo unspecified), the T/C [3] was 104 % of control, the T/C [4] was 104 % of control and the T/C (dose: 400.0 mg/kg/injection, schedule: Q01DX009 (ip), vehicle: saline with Tween-80) was 100 % of control.
With `O=C(Oc1ccccc1[N+](=O)[O-])c1ccccc1` the T/C (dose: 25.0 mg/kg/injection, schedule: Q04DX003 (ip), vehicle: other) was 100 % of control, the T/C (dose: 75.0 mg/kg/injection, schedule: Q04DX003 (ip), vehicle: other) was 100 % of control and the T/C (dose: 150.0 mg/kg/injection, schedule: Q04DX003 (ip), vehicle: other) was 95 % of control. The T/C (dose: 400.0 mg/kg/injection, schedule: Q04DX003 (ip), vehicle: other) was 90 % of control.
In the case of `CCCNC(=O)Nc1cc(Cl)ccc1OC`, the T/C [5] is reported as 95 % of control and the T/C [7] is reported as 95 % of control.
`COC1CC(OS(=O)(=O)c2ccc(C)cc2)C(O)C(C)O1` (stereo unspecified) was tested, and the T/C [2] was 98 % of control and 97 % of control, the T/C [3] was 100 % of control and 109 % of control and the T/C [5] was 99 % of control. The T/C [4] was 96 % of control and 103 % of control, the T/C [6] was 97 % of control and the T/C [7] was 96 % of control.
In the case of `O=C1CN(Cc2ccc3c(c2)OCO3)NO1`, the T/C [1] is reported as 113 % of control, the T/C [2] is reported as 106 % of control and the T/C [3] is reported as 123 % of control. The T/C [4] was 115 % of control.
In the case of `COC(=O)C1C(c2ccccc2)=NC(c2ccccc2)C1C(=O)OC` (stereo unspecified), the T/C [9] is reported as 101 % of control, the T/C [10] is reported as 96 % of control and the T/C (dose: 400.0 mg/kg/injection, schedule: Q01DX001 (ip), vehicle: saline with Tween-80) is reported as 109 % of control.
With `CC(C)C1(C(=O)O)SCCCS1` the T/C (dose: 50.0 mg/kg/injection, schedule: Q04DX003 (ip), vehicle: alcohol) was 115 % of control, the T/C (dose: 100.0 mg/kg/injection, schedule: Q04DX003 (ip), vehicle: alcohol) was 115 % of control and the T/C (dose: 200.0 mg/kg/injection, schedule: Q04DX003 (ip), vehicle: alcohol) was 105 % of control. For the same molecule, the T/C (dose: 400.0 mg/kg/injection, schedule: Q04DX003 (ip), vehicle: alcohol) was 105 % of control.
In the case of `COc1cc(OC)cc(C(=O)N2CC2)c1`, the T/C (dose: 6.25 mg/kg/injection, schedule: Q04DX003 (ip), vehicle: water) is reported as 105 % of control, the T/C (dose: 12.5 mg/kg/injection, schedule: Q04DX003 (ip), vehicle: water) is reported as 98 % of control and the T/C (dose: 25.0 mg/kg/injection, schedule: Q04DX003 (ip), vehicle: water) is reported as 105 % of control. The T/C (dose: 50.0 mg/kg/injection, schedule: Q04DX003 (ip), vehicle: water) was 96 % of control, the T/C (dose: 100.0 mg/kg/injection, schedule: Q04DX003 (ip), vehicle: water) was 107 % of control and the T/C (dose: 200.0 mg/kg/injection, schedule: Q01DX009 (ip), vehicle: water) was 100 % of control. For the same molecule, the T/C (dose: 200.0 mg/kg/injection, schedule: Q04DX003 (ip), vehicle: water) was 100 % of control, the T/C (dose: 300.0 mg/kg/injection, schedule: Q01DX009 (ip), vehicle: water) was 105 % of control and the T/C (dose: 400.0 mg/kg/injection, schedule: Q01DX009 (ip), vehicle: water) was 91 % of control.
For `CN(C)c1ccc(C(C#N)(c2ccc(N(C)C)cc2)c2ccc(N(C)C)cc2)cc1`, the T/C (dose: 50.0 mg/kg/injection, schedule: Q04DX003 (ip), vehicle: Klucel (hydroxypropylcellulose) (HPC)) was 100 % of control, the T/C [8] was 100 % of control and the T/C (dose: 200.0 mg/kg/injection, schedule: Q04DX003 (ip), vehicle: Klucel (hydroxypropylcellulose) (HPC)) was 95 % of control.
`COc1cc(Br)c(/C=C(\C)[N+](=O)[O-])cc1OC` was tested, and the T/C [9] was 109 % of control and the T/C [10] was 93 % of control.
In the case of `CSc1cccc(NC(=O)Oc2ccc([N+](=O)[O-])cc2Cl)c1`, the T/C (dose: 12.5 mg/kg/injection, schedule: Q01DX009 (ip), vehicle: DMSO) is reported as 93 % of control and the T/C (dose: 50.0 mg/kg/injection, schedule: Q01DX009 (ip), vehicle: DMSO) is reported as 89 % of control.
With `COc1cc(N(CCCl)CCCl)c(OC)cc1/C=N\Nc1nncn1N` the T/C (dose: 2.2 mg/kg/injection, schedule: Q01DX009 (ip), vehicle: saline) was 168 % of control, the T/C (dose: 3.3 mg/kg/injection, schedule: Q01DX009 (ip), vehicle: saline) was 163 % of control and the T/C (dose: 5.0 mg/kg/injection, schedule: Q01DX009 (ip), vehicle: saline) was 186 % of control. The T/C (dose: 5.0 mg/kg/injection, schedule: Q04DX003 (ip), vehicle: saline) was 179 % of control, the T/C (dose: 6.25 mg/kg/injection, schedule: Q01DX009 (ip), vehicle: saline) was 172 % of control and the T/C (dose: 7.5 mg/kg/injection, schedule: Q01DX009 (ip), vehicle: saline) was 240 % of control. For the same molecule, the T/C (dose: 10.0 mg/kg/injection, schedule: Q04DX003 (ip), vehicle: saline) was 212 % of control, the T/C (dose: 12.5 mg/kg/injection, schedule: Q01DX009 (ip), vehicle: saline) was 90 % of control and the T/C (dose: 20.0 mg/kg/injection, schedule: Q04DX003 (ip), vehicle: saline) was 108 % of control. For the same molecule, the T/C (dose: 25.0 mg/kg/injection, schedule: Q01DX009 (ip), vehicle: saline) was 86 % of control and the T/C (dose: 25.0 mg/kg/injection, schedule: Q04DX003 (ip), vehicle: saline sonified) was 177 % of control.
With `CCOCc1ccc(OCc2ccccc2)cc1` the T/C [2] was 94 % of control, the T/C [3] was 108 % of control and the T/C [4] was 119 % of control.
